Source: publication PMC9322052, “Synthesis and Biological Activity Screening of Newly Synthesized Trimethoxyphenyl-Based Analogues as Potential Anticancer Agents” (Molecules, 2022)

System: HepG2 cells
Test: Mitochondrial membrane potential by flow cytometry
Type: cell-based, human
Settings: HepG2, 1.38 μM (IC50), 48 h
Description: Mitochondrial Membrane Potential (MMP) plays a vital role in the initiation of the apoptosis process. Loss of MMP is characteristic of an early stage of apoptosis.
MMP was measured by flow cytometry analysis in HepG2 cells according to the manufacturer’s directions. See Section 3.3.5 in Supplementary Material.
Figure 5 Compound 9 promotes MMP dissipation in HepG2 cells. (A) HepG2 cells were treated with 1.38 μM of compound 9 for 48 h. MMP was quantized using image-based flow cytometry. (B) The quantification of MMP in HepG2 cells after treatment with compound 9 at its IC50 concentration (μM). […]
To measure the cytotoxic activity of the synthesized derivatives 2a-11 in hepatocel-lular carcinoma (HepG2) cell line (ATCC Cat No. HB-8065) as well as normal human liver cell line HL-7702 (ATCC Cat. No. 77402), cell viability assay was assessed using MTT assay method. […] The color inten-sity of the formazan product, which represents the growth condition of the cells, is quan-tified by using an ELISA plate reader (EXL 800, USA) at 570 nm absorbance. […]
Compounds 9, 10 and 11 were evaluated for their tubulin inhibitory activity levels according to the manufacturer’s instructions using # abcam Human Beta-tubulin simplestep […]

COc1ccc(C2=N/C(=C\c3cc(OC)c(OC)c(OC)c3)C(=O)NN2c2ccccc2)cc1OC [Compound 9, (Z)-3-(3,4-Dimethoxyphenyl)-2-Phenyl-5-(3,4,5-Trimethoxybenzylidene)-1,2-Dihydro-1,2,4-Triazin-6(5H)-one]
decrease in level of MMP compared with negative HepG2 cells: 3.12 fold
